Data on 21 molecules can be found in the supplement of paper PMC6723410.

Test [1] has as its system GUMC-403. In words: AC50 for reduction of cell viability; higher = less potent. Particulars: library / dose series: MIPE library, 11-point 1:3 dilution; 48 h.
The subject of test [2] is GUMC-403. The test is described as follows: viability at highest tested concentration (max response) relative to DMSO (% of DMSO control); higher = less cytotoxic. The conditions noted are these: library / dose series: MIPE library, 11-point 1:3 dilution; top concentration 46.1 µM; 48 h. The gist of the method: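 Plates of 1536 wells were seeded with 700 patient-derived GUMC-403 papilloma cells per well, grown by conditional reprogramming, in 5 μL F + Y medium and kept overnight at 37 °C. Compounds followed at 23 nL by pin tool over an 11-point 1:3 series, for 48 h. After a CellTiter-Glo luminescence read on a ViewLux, signals were set against vehicle wells as 100% and empty wells as 0%. The reported number is viability at the highest tested concentration relative to vehicle control.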

Molecules are shown by their SMILES.

On to `CC1(C)CC(=O)c2c(C(F)(F)F)nn(-c3ccc(C(N)=O)c(NC4CCC(O)CC4)c3)c2C1` (configuration not stated), for which the “AC50 for reduction of cell viability” value in test [1] stood at 0.296 µM. Moreover, the viability in test [2] was found to be 67.7.
The like results for `OCCCNc1cc(-c2ccnc(Nc3cccc(Cl)c3)n2)ccn1` were, in that order, 0.105 µM and 63.6.
`O=C(Nc1cc(C(F)(F)F)cc(C(F)(F)F)c1)c1cc(Cl)ccc1O`: the “AC50 for reduction of cell viability” value in test [1] amounted to 1.48 µM. The viability in test [2] amounted to 70.
The matching figures for `CNC(=O)c1cccc(-c2ccc3c(N4CCOC[C@@H]4C)nc(N4CCOC[C@@H]4C)nc3n2)c1`: 0.0235 µM and 59.
The like results for `CC[C@@H]1C(=O)N(C)c2cnc(Nc3ccc(C(=O)NC4CCC(N5CCN(CC6CC6)CC5)CC4)cc3OC)nc2N1C(C)C` (some centres not stated) were, in that order, 20.9 µM and 6.26.
The matching figures for `CC(C)[C@]12O[C@H]1[C@@H]3O[C@@]34[C@@]5(C)CC\C6=C(COC6=O)/[C@@H]5C[C@@H]7O[C@]47[C@@H]2O`: 0.0332 µM and 22.7.
As for `CC(=O)Nc1nc(C)c(-c2ccc(Cl)c([S+](=O)([O-])NCCO)c2)s1`, the “AC50 for reduction of cell viability” value in test [1] stood at 14.8 µM. The molecule also gave a viability in test [2] of 12.5.
The matching figures for `COC1=CC(=CC(=C1)C2=CC=C3N=CC\4=C(N(C(=O)\C=C4)C5=CC(=C(C=C5)N6CCNCC6)C(F)(F)F)C3=C2)OC`: 16.6 µM and 28.5.
The matching figures for `COc1ccc(-c2ccc3ncc4c(c3c2)n(-c2ccc(N3CCNCC3)c(C(F)(F)F)c2)c(=O)n4C)cn1`: 8.33 µM and 3.16.
The like results for `CC(C)C[C@@H](C=O)NC(=O)[C@H](CC(C)C)NC(=O)[C@H](CC(C)C)NC(=O)OCc1ccccc1` were, in that order, 10.5 µM and 9.05.
Turning to `COc1c(C)cnc(Cn2cnc3c(Cl)nc(N)nc32)c1C`, the “AC50 for reduction of cell viability” value in test [1] came to 2.96 µM. The molecule also gave a viability in test [2] of 61.4.
The matching figures for `C=CC(=O)Nc1cccc(Oc2nc(Nc3ccc(N4CCN(C)CC4)cc3OC)ncc2Cl)c1`: 0.59 µM and 65.2.
As for `CC(C)C[C@H](NC(=O)[C@@H](NC(=O)c1cccc(-c2ccccc2)n1)[C@@H](C)O)B(O)O`, the “AC50 for reduction of cell viability” value in test [1] was found to be 1.87 µM. This molecule also showed a viability in test [2] of 26.3.
The matching figures for `Nc1nc(NCCNc2ncc(-n3ccnc3)c(-c3ccc(Cl)cc3Cl)n2)ccc1[N+](=O)[O-]`: 2.35 µM and 61.4.
The matching figures for `CC(C)(C)c1cnc(CSc2cnc(NC(=O)C3CCNCC3)s2)o1`: 0.469 µM and 24.3.
The matching figures for `CCc1ccc(OCc2ccccc2C(=O)Nc2ccc3nc(C)cc(N)c3c2)cc1`: 10.5 µM and 4.25.
As to `CC[S+](=O)([O-])c1cccc(-c2cc(C(=O)NC3CCN(C)CC3)c(C)c3[nH]c4ncc(C)cc4c23)c1`, in test [1], the “AC50 for reduction of cell viability” value turned out to be 4.69 µM. This molecule also had a viability in test [2] of 75.8.
The matching figures for `CCC[S+](=O)([O-])Nc1ccc(F)c(C(=O)c2c[nH]c3ncc(-c4ccc(Cl)cc4)cc23)c1F`: 5.9 µM and 54.9.
The like results for `CCC[C@@H](C=O)NC(=O)[C@H](CC(C)C)NC(=O)[C@H](CC(C)C)NC(=O)OCc1ccccc1` were, in that order, 14.8 µM and 7.94.
The matching figures for `c1nc2c(NC3CCCCC3)nc(Nc3ccc(N4CCOCC4)cc3)nc2[nH]1`: 18.7 µM and 31.3.
Take `C=CCNc1c(O)cc2c(O)c1C[C@@H](C)C[C@H](OC)[C@H](O)[C@@H](C)/C=C(/C)[C@H](OC(N)=O)[C@@H](OC)/C=C\C=C(\C)C(=O)N2`: the “AC50 for reduction of cell viability” value in test [1] is 4.69 µM. In test [2], this molecule registered a viability of 68.9.
